Patent publication US20180244611A1, “Modulators of the Cystic Fibrosis Transmembrane Conductance Regulator Protein and Methods of Use” (AbbVie S.à.r.l., priority 2017, published 2018)

Columns and labels:
[1] = biological target: T1, F508delCFTR (Homo sapiens, UniProt P13569, DEL508-508); assay: Cell Surface Expression-Horse Radish Peroxidase (CSE-HRP) assay, test compound without co-corrector; assay type: cell-based; details: for Emax: maximum at any tested concentration, normalized to positive control, without co-corrector; for EC50: test compound without co-corrector;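 as to Emax: percent of on-plate 2 µM positive control corrector response over DMSO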
T1 construct: expressed in transfected cells; host or cells: CFBE41o- human lung-derived epithelial cells (CFBE41o-F508delCFTR-HRP), doxycycline-inducible
How it was run: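 CFBE41o- cells expressing F508delCFTR with HRP in the fourth exofacial loop, induced with 0.5 μg/mL doxycycline for 72 h at 37° C, then exposed to compound alone for 18-24 h at 33° C, 8-point 3-fold series from 20 μM. Surface HRP read by luminol luminescence, normalized to positive corrector control versus DMSO; EC50 from variable-slope sigmoidal fit of three replicate plates.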

[2] = biological target: T1, F508delCFTR; assay: Cell Surface Expression-Horse Radish Peroxidase (CSE-HRP) assay, test compound with co-corrector; assay type: cell-based; details: with 2 μM co-corrector; for Maximum % activity (with co-corrector): maximum at any tested concentration, normalized to positive control;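 as to Maximum % activity (with co-corrector): percent of 2 µM positive control corrector over DMSO; co-corrector is that same compound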
How it was run: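 CFBE41o- cells expressing F508delCFTR with HRP in the fourth exofacial loop, induced with 0.5 μg/mL doxycycline for 72 h, then treated 18-24 h at 33° C. with compound (8 points, top 20 μM, 3-fold) plus 2 μM co-corrector. Surface HRP read by luminol luminescence; activity normalised to positive control, EC50 from variable-slope sigmoidal fit.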

T1 sequence (P13569 with tags, fused parts or gaps DEL508-508): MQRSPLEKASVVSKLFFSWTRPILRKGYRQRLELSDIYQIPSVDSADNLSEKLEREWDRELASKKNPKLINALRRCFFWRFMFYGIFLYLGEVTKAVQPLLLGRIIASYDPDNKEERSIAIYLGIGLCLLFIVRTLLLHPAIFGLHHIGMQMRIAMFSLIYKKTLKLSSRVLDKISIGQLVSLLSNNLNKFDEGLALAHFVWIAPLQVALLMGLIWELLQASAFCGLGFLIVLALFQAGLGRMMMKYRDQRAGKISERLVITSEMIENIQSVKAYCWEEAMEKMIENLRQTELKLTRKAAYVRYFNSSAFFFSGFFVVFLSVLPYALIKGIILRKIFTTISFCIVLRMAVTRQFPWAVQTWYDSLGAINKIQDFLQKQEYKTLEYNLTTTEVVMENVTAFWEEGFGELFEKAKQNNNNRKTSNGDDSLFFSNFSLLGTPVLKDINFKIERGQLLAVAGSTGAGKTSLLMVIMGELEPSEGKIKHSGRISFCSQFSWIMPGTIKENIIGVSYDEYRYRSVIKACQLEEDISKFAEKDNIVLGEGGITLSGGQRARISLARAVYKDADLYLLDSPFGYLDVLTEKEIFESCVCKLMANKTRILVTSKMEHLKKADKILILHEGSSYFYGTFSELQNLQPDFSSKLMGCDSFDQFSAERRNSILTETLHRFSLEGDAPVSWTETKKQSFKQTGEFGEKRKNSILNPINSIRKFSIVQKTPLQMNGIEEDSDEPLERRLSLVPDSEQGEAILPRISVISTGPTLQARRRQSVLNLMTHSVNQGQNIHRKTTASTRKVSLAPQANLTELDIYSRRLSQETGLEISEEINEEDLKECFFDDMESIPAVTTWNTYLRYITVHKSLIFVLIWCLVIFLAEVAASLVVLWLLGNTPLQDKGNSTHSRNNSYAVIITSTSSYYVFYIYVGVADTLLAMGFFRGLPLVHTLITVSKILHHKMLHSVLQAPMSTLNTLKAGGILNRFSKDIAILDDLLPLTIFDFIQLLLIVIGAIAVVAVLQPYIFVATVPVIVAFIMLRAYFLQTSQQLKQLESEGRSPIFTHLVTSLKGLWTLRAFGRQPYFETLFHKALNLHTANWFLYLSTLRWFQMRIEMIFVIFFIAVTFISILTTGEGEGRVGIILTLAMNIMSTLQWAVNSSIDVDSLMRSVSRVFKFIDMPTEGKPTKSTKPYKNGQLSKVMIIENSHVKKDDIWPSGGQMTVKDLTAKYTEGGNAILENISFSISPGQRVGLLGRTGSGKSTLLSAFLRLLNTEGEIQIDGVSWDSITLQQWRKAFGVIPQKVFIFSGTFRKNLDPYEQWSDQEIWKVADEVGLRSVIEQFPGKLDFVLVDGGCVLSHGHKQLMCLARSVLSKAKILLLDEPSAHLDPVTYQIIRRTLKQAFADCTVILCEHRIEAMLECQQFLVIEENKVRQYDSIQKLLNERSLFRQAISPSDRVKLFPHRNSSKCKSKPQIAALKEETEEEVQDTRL

Compound | Emax [1] [%] | EC50 [1] [µM] | Maximum % activity (with co-corrector) [2] | EC50 [2] [µM]
O=C(NS(=O)(=O)c1cccc2ccccc12)C1(Cc2ccc(Cl)nc2)CCc2c(Cl)cccc21 (centres unmarked) [Example I-36, 4-chloro-1-[(6-chloropyridin-3-yl)methyl]-N-(naphthalene-1-sulfonyl)-2,3-dihydro-1H-indene-1-carboxamide] | 50 to 150 | 3 to 10 | +++ (≥350) | < 3
CC1(C(=O)NS(=O)(=O)c2cccc3ccccc23)CCc2c(Cl)cccc21 (centres unmarked) [Example I-38, 4-chloro-1-methyl-N-(naphthalene-1-sulfonyl)-2,3-dihydro-1H-indene-1-carboxamide] | ≥ 150 | 3 to 10 | +++ (≥350) | < 3
COc1ccc(Br)c2c1C(C(=O)NS(=O)(=O)c1cccc3ccccc13)CCC2 (centres unmarked) [Example I-41, 5-bromo-8-methoxy-N-(naphthalene-1-sulfonyl)-1,2,3,4-tetrahydronaphthalene-1-carboxamide] | ≥ 150 | < 3 | +++ (≥350) | < 3
CCC1(C(=O)NS(=O)(=O)c2cccc3ncccc23)CCc2c(Cl)cccc21 (centres unmarked) [Example I-42, 4-chloro-1-ethyl-N-(quinoline-5-sulfonyl)-2,3-dihydro-1H-indene-1-carboxamide] | ≥ 150 | < 3 | +++ (≥350) | < 3
COCCOc1ccc(Br)c2c1CCCC2C(=O)NS(=O)(=O)c1cccc2ccccc12 (centres unmarked) [Example I-45, 8-bromo-5-(2-methoxyethoxy)-N-(naphthalene-1-sulfonyl)-1,2,3,4-tetrahydronaphthalene-1-carboxamide] | ≥ 150 | < 3 | +++ (≥350) | < 3
COc1ccc(Br)c2c1[C@@H](C(=O)NS(=O)(=O)c1cccc3ncccc13)CC2 [Example I-46, (1S)-4-bromo-7-methoxy-N-(quinoline-5-sulfonyl)-2,3-dihydro-1H-indene-1-carboxamide] | ≥ 150 | 3 to 10 | +++ (≥350) | < 3
COc1ccc(Br)c2c1CCC[C@@H]2C(=O)NS(=O)(=O)c1cccc2ccccc12 [Example I-48, (1S)-8-bromo-5-methoxy-N-(naphthalene-1-sulfonyl)-1,2,3,4-tetrahydronaphthalene-1-carboxamide] | ≥ 150 | 3 to 10 | +++ (≥350) | < 3
COc1ccc(Br)c2c1CCC[C@H]2C(=O)NS(=O)(=O)c1cccc2ccccc12 [Example I-49, (1R)-8-bromo-5-methoxy-N-(naphthalene-1-sulfonyl)-1,2,3,4-tetrahydronaphthalene-1-carboxamide] | ≥ 150 | < 3 | +++ (≥350) | < 3
COc1ccc(Br)c2c1[C@H](C(=O)NS(=O)(=O)c1cccc3ccccc13)CC2 [Example I-52, (1R)-4-bromo-7-methoxy-N-(naphthalene-1-sulfonyl)-2,3-dihydro-1H-indene-1-carboxamide] | ≥ 150 | < 3 | +++ (≥350) | < 3
CCOc1ccc(Br)c2c1C(C(=O)NS(=O)(=O)c1cccc3ccccc13)CC2 (centres unmarked) [Example I-53, 4-bromo-7-ethoxy-N-(naphthalene-1-sulfonyl)-2,3-dihydro-1H-indene-1-carboxamide] | ≥ 150 | < 3 | +++ (≥350) | < 3
COc1ccc(-c2ccc(C)cc2)c2c1CCCC2C(=O)NS(=O)(=O)c1cccc2ccccc12 (centres unmarked) [Example I-57, 5-methoxy-8-(4-methylphenyl)-N-(naphthalene-1-sulfonyl)-1,2,3,4-tetrahydronaphthalene-1-carboxamide] | ≥ 150 | < 3 | +++ (≥350) | < 3
COc1ccc(Cl)c2c1C(C(=O)NS(=O)(=O)c1cccc3ccccc13)CC2 (centres unmarked) [Example I-59, 4-chloro-7-methoxy-N-(naphthalene-1-sulfonyl)-2,3-dihydro-1H-indene-1-carboxamide] | ≥ 150 | 3 to 10 | +++ (≥350) | < 3

More lines, now with the values ahead:

Emax [1] [%] | EC50 [1] [µM] | Maximum % activity (with co-corrector) [2] | EC50 [2] [µM] | Compound
≥ 150 | < 3 | +++ (≥350) | < 3 | CCC1(C(=O)NS(=O)(=O)c2cccc3ccccc23)CCCc2cccc(Cl)c21 (centres unmarked) [Example I-34, 8-chloro-1-ethyl-N-(naphthalene-1-sulfonyl)-1,2,3,4-tetrahydronaphthalene-1-carboxamide]
≥ 150 | < 3 | +++ (≥350) | < 3 | O=C(NS(=O)(=O)c1cccc2ccccc12)C1(Cc2cccc(C(F)(F)F)n2)CCc2c(Cl)cccc21 (centres unmarked) [Example I-35, 4-chloro-N-(naphthalene-1-sulfonyl)-1-{[6-(trifluoromethyl)pyridin-2-yl]methyl}-2,3-dihydro-1H-indene-1-carboxamide]
50 to 150 | 3 to 10 | +++ (≥350) | 3 to 10 | COc1cccc(CC2(C(=O)NS(=O)(=O)c3cccc4ccccc34)CCc3c(Cl)cccc32)n1 (centres unmarked) [Example I-37, 4-chloro-1-[(6-methoxypyridin-2-yl)methyl]-N-(naphthalene-1-sulfonyl)-2,3-dihydro-1H-indene-1-carboxamide]
50 to 150 | < 3 | +++ (≥350) | < 3 | CCC1(C(=O)NS(=O)(=O)c2cccc3c(Cl)cccc23)CCc2c(Cl)cccc21 (centres unmarked) [Example I-39, 4-chloro-N-(5-chloronaphthalene-1-sulfonyl)-1-ethyl-2,3-dihydro-1H-indene-1-carboxamide]
≥ 150 | < 3 | +++ (≥350) | < 3 | CC(C)Oc1ccc(Br)c2c1CCCC2C(=O)NS(=O)(=O)c1cccc2ccccc12 (centres unmarked) [Example I-40, 8-bromo-N-(naphthalene-1-sulfonyl)-5-[(propan-2-yl)oxy]-1,2,3,4-tetrahydronaphthalene-1-carboxamide]
50 to 150 | < 3 | +++ (≥350) | < 3 | CCC1(C(=O)NS(=O)(=O)c2cccc3sccc23)CCc2c(Cl)cccc21 (centres unmarked) [Example I-43, N-(1-benzothiophene-4-sulfonyl)-4-chloro-1-ethyl-2,3-dihydro-1H-indene-1-carboxamide]
≥ 150 | < 3 | +++ (≥350) | < 3 | COc1ccc(Br)c2c1C(C(=O)NS(=O)(=O)c1cccc3ncccc13)CC2 (centres unmarked) [Example I-44, 4-bromo-7-methoxy-N-(quinoline-5-sulfonyl)-2,3-dihydro-1H-indene-1-carboxamide]
≥ 150 | < 3 | +++ (≥350) | < 3 | COc1ccc(Br)c2c1[C@H](C(=O)NS(=O)(=O)c1cccc3ncccc13)CC2 [Example I-47, (1R)-4-bromo-7-methoxy-N-(quinoline-5-sulfonyl)-2,3-dihydro-1H-indene-1-carboxamide]
≥ 150 | < 3 | +++ (≥350) | < 3 | COc1ccc(Br)c2c1C(C(=O)NS(=O)(=O)c1cccc3ncccc13)CCC2 (centres unmarked) [Example I-50, 5-bromo-8-methoxy-N-(quinoline-5-sulfonyl)-1,2,3,4-tetrahydronaphthalene-1-carboxamide]
50 to 150 | 3 to 10 | ++ (≥150 and <350) | 3 to 10 | COc1ccc(Br)c2c1[C@@H](C(=O)NS(=O)(=O)c1cccc3ccccc13)CC2 [Example I-51, (1S)-4-bromo-7-methoxy-N-(naphthalene-1-sulfonyl)-2,3-dihydro-1H-indene-1-carboxamide]
≥ 150 | 3 to 10 | +++ (≥350) | < 3 | CC(C)Oc1ccc(Br)c2c1C(C(=O)NS(=O)(=O)c1cccc3ccccc13)CC2 (centres unmarked) [Example I-54]
≥ 150 | < 3 | +++ (≥350) | < 3 | O=C(NS(=O)(=O)c1cccc2ccccc12)C1CCc2c(Br)ccc(OCC3CC3)c21 (centres unmarked) [Example I-55, 4-bromo-7-(cyclopropylmethoxy)-N-(naphthalene-1-sulfonyl)-2,3-dihydro-1H-indene-1-carboxamide]
≥ 150 | < 3 | +++ (≥350) | < 3 | COc1ccc(Br)c2c1CCCC2C(=O)NS(=O)(=O)c1cccc2ncccc12 (centres unmarked) [Example I-56, 8-bromo-5-methoxy-N-(quinoline-5-sulfonyl)-1,2,3,4-tetrahydronaphthalene-1-carboxamide]
≥ 150 | < 3 | +++ (≥350) | < 3 | O=C(NS(=O)(=O)c1cccc2ccccc12)C1CCc2c(Br)ccc(OC(F)F)c21 (centres unmarked) [Example I-58, 4-bromo-7-(difluoromethoxy)-N-(naphthalene-1-sulfonyl)-2,3-dihydro-1H-indene-1-carboxamide]
